{"source": "patent US4816490A", "about": "“Novel therapeutic use of a derivative of indane dione and the pharmaceutical compositions intended for this use” (priority 1987, dated 1989)", "key": {"[1]": {"tested_on": "hyperlipidaemia induced by TRITON WR 1339", "assay": "Hyperlipidaemia induced by TRITON WR 1339 in the Wistar rat", "type": "in vivo", "conditions": "for Dose dependence of hypolipaemiant activity: 250 and 500 mg/kg", "procedure": "Feeding by standard Regimen UAR A04\nDrinking water ad libitum\n6 animals per dose in a cage in MAKROLON of 60×40 cm filled with shavings of wood.\n10 mn after: administration of the test compound\n6 hours after: 1st sampling of the blood at the retro-orbital sinus\nTotal cholesterol by the colorimetric method of RICHMOND\nCholesterol in HDL by the colorimetric method of RICHMOND after precipitation by CONCANAVALIN A\nCholesterol in LDL by the colorimetric method of RICHMOND after precipitation by CONCANAVALIN A\nTotal lipids by the Zollner's sulphophosphovanillic method\nTriglycerids by the BUCOLO's enzymatic method."}, "[2]": {"tested_on": "atheromatous deposits of the aorta, Wistar rats", "assay": "Macroscopic examination of aorta atheroma in rats on atheromatogenous diet", "type": "in vivo, rat", "description": "The method utilized for the test was that, slightly altered of Aubert D. Feraud J. C., Lacaze B., Pepino., Ponak E. et Podesta M. as described in Atherosclerosis, Vol. 20 (1974), p. 263-280 (Experimental Atherogenesis in the Wistar Rat).\nDiet: standard tablets UAE AO 3 enriched in cholesterol (0.5%) and in cholic acid (0.5).\nAfter the studies, all the animals were sacrificed by subtotal puncture of the blood in the abdominal aorta after anesthesia by intravenous sodium Pentobarbital. The hearts, livers, aortas on which the score of atheroma was determined were taken. For this purpose, the aortas were longitudinally cut, then spread to allow a whole insight of the endothelial coating from the aortic valves until the branching of the coeliac stem (lower portion of the thoracic aorta).\nAorta was from an anatomic point of view divided into two parts:\nZone 1: aortic valves-first intercostal arters\nZone 2: first intercostal arters and branching of the coeliac stem\nThe intensity of the atheromatous deposits was determined according to the following scores:\nScore 1: Discrete (<1 mm) and few deposit\nScore 2: Numerous and discrete deposits\nScore 3: Numerous and marked deposits (<1 mm)\nScore 4: Very marked deposits or very numerous deposits but letting some uninfiltrated areas\nScore 5: Deposits on the whole epithelium\nTwo parameters were considered:\nthe intensity of the observed damages determined according to the previously-given scores."}, "[3]": {"conditions": "French patent 2,382,424; cited from earlier work"}}}
{"molecule": "COc1ccc(C(=O)CC2(O)C(=O)c3ccccc3C2=O)cc1OC", "note": "[Compound of the invention, 2-[(3,4-dimethoxy-benzoyl)-methyl]-2-hydroxy-1,3-dioxo Indane]", "values": [{"measurement": "Dose dependence of hypolipaemiant activity", "setting": "[1]; 6 hours after TRITON WR 1339", "result": "directly proportional to the doses"}, {"measurement": "Dose dependence of hypolipaemiant activity", "setting": "[1]; 24 hours after TRITON WR 1339", "result": "inversely proportional to the dose"}, {"measurement": "Total Score vs 250 mg/kg Procetofene", "setting": "[1]; 6 hours after, 125 mg/kg oral", "result": 2.75}, {"measurement": "Total cholesterol score vs 250 mg/kg Procetofene", "setting": "[1]; 6 hours after, 125 mg/kg oral", "result": 2.44}, {"measurement": "Triglycerids score vs 250 mg/kg Procetofene", "setting": "[1]; 6 hours after, 125 mg/kg oral", "result": 0.31}, {"measurement": "Cholesterol HDL/LDL score vs 250 mg/kg Procetofene", "setting": "[1]; 6 hours after, 250 mg/kg oral", "result": 0.87}, {"measurement": "Total Score vs 250 mg/kg Procetofene", "setting": "[1]; 6 hours after, 250 mg/kg oral", "result": 3.74}, {"measurement": "Total cholesterol score vs 250 mg/kg Procetofene", "setting": "[1]; 6 hours after, 250 mg/kg oral", "result": 1.15}, {"measurement": "Total lipids score vs 250 mg/kg Procetofene", "setting": "[1]; 6 hours after, 250 mg/kg oral", "result": 0.92}, {"measurement": "Triglycerids score vs 250 mg/kg Procetofene", "setting": "[1]; 6 hours after, 250 mg/kg oral", "result": 0.80}, {"measurement": "Cholesterol HDL/LDL score vs 250 mg/kg Procetofene", "setting": "[1]; 6 hours after, 500 mg/kg oral", "result": 2.00}, {"measurement": "Total Score vs 250 mg/kg Procetofene", "setting": "[1]; 6 hours after, 500 mg/kg oral", "result": 4.95}, {"measurement": "Total cholesterol score vs 250 mg/kg Procetofene", "setting": "[1]; 6 hours after, 500 mg/kg oral", "result": 0.35}, {"measurement": "Total lipids score vs 250 mg/kg Procetofene", "setting": "[1]; 6 hours after, 500 mg/kg oral", "result": 1.00}, {"measurement": "Triglycerids score vs 250 mg/kg Procetofene", "setting": "[1]; 6 hours after, 500 mg/kg oral", "result": 1.60}, {"measurement": "Total Score vs 250 mg/kg Procetofene", "setting": "[1]; 6 hours after, 750 mg/kg oral", "result": 1.72}, {"measurement": "Total cholesterol score vs 250 mg/kg Procetofene", "setting": "[1]; 6 hours after, 750 mg/kg oral", "result": 0.78}, {"measurement": "Total lipids score vs 250 mg/kg Procetofene", "setting": "[1]; 6 hours after, 750 mg/kg oral", "result": 0.14}, {"measurement": "Triglycerids score vs 250 mg/kg Procetofene", "setting": "[1]; 6 hours after, 750 mg/kg oral", "result": 0.80}, {"measurement": "Cholesterol HDL/LDL score vs 250 mg/kg Procetofene", "setting": "[1]; 24 hours after, 125 mg/kg oral", "result": 1.40}, {"measurement": "Total Score vs 250 mg/kg Procetofene", "setting": "[1]; 24 hours after, 125 mg/kg oral", "result": 1.94}, {"measurement": "Total cholesterol score vs 250 mg/kg Procetofene", "setting": "[1]; 24 hours after, 125 mg/kg oral", "result": 0.28}, {"measurement": "Triglycerids score vs 250 mg/kg Procetofene", "setting": "[1]; 24 hours after, 125 mg/kg oral", "result": 0.26}, {"measurement": "Cholesterol HDL/LDL score vs 250 mg/kg Procetofene", "setting": "[1]; 24 hours after, 250 mg/kg oral", "result": 1.10}, {"measurement": "Total Score vs 250 mg/kg Procetofene", "setting": "[1]; 24 hours after, 250 mg/kg oral", "result": 4.64}, {"measurement": "Total cholesterol score vs 250 mg/kg Procetofene", "setting": "[1]; 24 hours after, 250 mg/kg oral", "result": 1.13}, {"measurement": "Total lipids score vs 250 mg/kg Procetofene", "setting": "[1]; 24 hours after, 250 mg/kg oral", "result": 1.56}, {"measurement": "Triglycerids score vs 250 mg/kg Procetofene", "setting": "[1]; 24 hours after, 250 mg/kg oral", "result": 0.85}, {"measurement": "Cholesterol HDL/LDL score vs 250 mg/kg Procetofene", "setting": "[1]; 24 hours after, 500 mg/kg oral", "result": 0.80}, {"measurement": "Total Score vs 250 mg/kg Procetofene", "setting": "[1]; 24 hours after, 500 mg/kg oral", "result": 3.66}, {"measurement": "Total cholesterol score vs 250 mg/kg Procetofene", "setting": "[1]; 24 hours after, 500 mg/kg oral", "result": 0.75}, {"measurement": "Total lipids score vs 250 mg/kg Procetofene", "setting": "[1]; 24 hours after, 500 mg/kg oral", "result": 1.62}, {"measurement": "Triglycerids score vs 250 mg/kg Procetofene", "setting": "[1]; 24 hours after, 500 mg/kg oral", "result": 0.49}, {"measurement": "Cholesterol HDL/LDL score vs 250 mg/kg Procetofene", "setting": "[1]; 24 hours after, 750 mg/kg oral", "result": 0.40}, {"measurement": "Total Score vs 250 mg/kg Procetofene", "setting": "[1]; 24 hours after, 750 mg/kg oral", "result": 1.73}, {"measurement": "Total cholesterol score vs 250 mg/kg Procetofene", "setting": "[1]; 24 hours after, 750 mg/kg oral", "result": 0.61}, {"measurement": "Triglycerids score vs 250 mg/kg Procetofene", "setting": "[1]; 24 hours after, 750 mg/kg oral", "result": 0.72}, {"measurement": "minimal effective dose", "setting": "[1]; Rattus norvegicus, TRITON WR 1339, rats, oral, read-out: Oral dose from which hyperlipaemia was antagonized or decreased", "result": "≥ 125", "unit": "mg/kg"}, {"measurement": "Antihyperlipaemiant activity, compound vs Procetofene", "setting": "[1]; same doses (250 and 500 mg/kg)", "result": "antihyperlipaemiant activity about equal"}, {"measurement": "Macroscopical examination total score", "setting": "[2]; 100 mg/kg", "result": 2.57}, {"measurement": "Damaged animals, % of decrease in comparison with Controls-Diet", "setting": "[2]; 100 mg/kg, macroscopical", "result": -30.77, "unit": "%"}, {"measurement": "Damaged animals, percentage", "setting": "[2]; 100 mg/kg, macroscopical", "result": 69.23, "unit": "%"}, {"measurement": "Damaged animals, score in relation to Clofibrate", "setting": "[2]; 100 mg/kg, macroscopical", "result": 1.69}, {"measurement": "Intensity of the damages, % of decrease in comparison with Controls-Diet", "setting": "[2]; 100 mg/kg, macroscopical", "result": -22.68, "unit": "%"}, {"measurement": "Intensity of the damages, score in relation to Clofibrate", "setting": "[2]; 100 mg/kg, macroscopical", "result": 0.88}, {"measurement": "Frequency of macroscopic damages", "setting": "[2]; cholesterol-rich diet", "result": "a lower frequency of macroscopic damages"}, {"measurement": "Intensity of observed damages", "setting": "[2]; cholesterol-rich diet", "result": "a lower intensity of the observed damages"}, {"measurement": "Activity on macroscopic damages vs Clofibrate", "setting": "[2]; same doses, cholesterol-rich diet", "result": "more active when evaluating the macroscopic damages"}, {"measurement": "Dose inducing an anti-inflammatory threshold effect", "setting": "[3]", "result": 250, "unit": "mg/kg"}]}
